# From patent publication US20090264528A1, “SERINE PALMITOYLCOA TRANSFERASE (SPT) INHIBITION BY MYRIOCIN OR GENETIC DEFICIENCY DECREASES CHOLESTEROL ABSORPTION” (The Research Foundation of State University of New York, priority 2008, published 2009)
# Tests used:
# [1] = system: cholesterol absorption; test: Blood [14C]-cholesterol within 24 hours after a single gavage; type: in vivo, mouse
# Protocol: FIGS. 5A-I depict several graphs that illustrate that SPT deficient mice absorbed less cholesterol. Mice (n=6, 10-12 weeks old) were fasted for 5 hours and gavaged with 0.1 microCi [^14C]cholesterol and 0.2 microCi [^3H]sitostanol with 0.5 mg unlabeled cholesterol dissolved in 15 microl of olive oil. Feces were collected after 24 hours and lipids were extracted for counting (FIGS. 5A, 5D, and 5G, cholesterol absorption, WT vs WT/myriocin; apoE KO vs apoE KO/myriocin; WT vs Sptlc1^+/−, respectively). Blood was collected during the 24 hour period (Panels B, E, and H, [^14C]cholesterol in blood, WT vs WT/myriocin; apoE KO vs apoE KO/myriocin; WT vs Sptlc1^+/−, respectively). To test specificity, the mice were gavaged with 0.2 microCi [^3H]triolein together with 0.5 mg/ml cold cholesterol. Blood was collected during the 24 hour period (FIGS. 5C, 5F, and 5I, [^3H] glycerolipids in blood, WT versus WT/myriocin; apoE KO versus apoE KO/myriocin; WT versus Sptlc1^+/−, respectively). Value is mean±SD. *P<0.01.
# This confirmed that there was defective cholesterol absorption in these animals.
# [2] = system: ABCA1; test: Western blot of small intestine homogenates, ABCA1; type: in vivo, mouse; settings: SPT-deficient small intestines (myriocin-treated, FIG. 6A) compared with controls
# Protocol: FIG. 8 depicts that SPT deficiency decreased NPC1L1 and ABCA1, and increased ABCG5 in mouse small intestine. Tissue homogenates were prepared as described in Methods, and equal amounts of homogenates from each mouse were pooled in each group (n=5). A total of 50 microg pooled sample from each group was immunoblotted with antibodies against NPC1L1, ABCA1, and ABCG5. Immunoblots of beta (β)-actin were used as a loading control.
# Preparation and Western blot analysis of small intestine homogenates: A total of 50-100 mg of small intestine sample was homogenized and lysed proteins were immunoblotted, as previously described, (3) with a polyclonal rabbit antihuman NPC1L1 antiserum 69B, a polyclonal rabbit antimouse ABCG5 antiserum, a polyclonal antimouse ABCA1 antibody, and a monoclonal mouse anti-(beta)β-actin antibody.
# Next, Western blot measurements of NPC1L1 and ABCG5/G8 were completed, where the measurement were located in apical membranes of the enterocytes. […] Also, ABCA1 was measured, which is located in the basal membranes of the enterocytes and is involved in cholesterol secretion.
# [3] = system: cholesterol absorption; test: Absorption of [14C]cholesterol after a single gavage (intestine, liver, bile, plasma); type: in vivo, mouse; settings: 24 hours after single gavage, mean ± SD, n=5
# Protocol: Cholesterol absorption studies: A classical fecal dual-isotope ratio method was used for the cholesterol absorption study. Briefly, a mixture of [^14C]-labeled (0.1 microCi) and unlabeled cholesterol (0.5 mg) and [^3H]sitostanol (0.2 microCi) in 15 microl of olive oil was fed to mice (10-12 weeks old). Feces were collected for 24 hours. The cholesterol absorption ratio was calculated as: % absorption={1−[fecal(^14C/^3H)]/administered(^14C/^3H)}×100. In some cases, mice were sacrificed, plasma collected, and radioactivity counted. Small intestines (from duodenum to ileum) were washed and cut into 2 cm segments. Each of these, as well as a part of the liver, were digested and radioactivity counted individually.
# Next, the amounts of [^14C]cholesterol present in the intestine and those transported to plasma, liver, and bile in 24 hours were measured after a single bolus of radiolabeled cholesterol.
# [4] = system: apical membrane SM of small intestine segments; test: In situ lysenin treatment and cell mortality measurement (WST-1); type: cell-based, mouse; settings: jejunum segments from myriocin-treated WT mice, 5 microg/ml lysenin, 30 minutes
# Protocol: FIGS. 7A-B depict several graphs that illustrate that SPT deficiency decreased SM levels on the apical surface of mouse small intestine. Small intestines were turned inside-out and cut into 0.5 cm of segments from jejunum. The segments were then bathed in 0.5 ml of oxygenated DMEM containing 5% glutamine with 5 microg/ml lysenin or without it as control, at 37 degrees C. for 30 minutes. Then 0.05 ml of WST-1 cell proliferation reagent were added and continuously incubated at 37 degrees C. for 15 minutes. After incubation, solutions were transferred to an Eppendorf tube and quick-spun at maximum speed to pellet cell debris. Supernatants were read OD at 450 nm, a reading for viable cells. Background reading was the WST-1 reagent with no cell treatment. […]
# In situ lysenin treatment and cell mortality measurement: Overnight-fasted mice were anesthetized and small intestines were isolated from WT animals with or without myriocin treatment, as well as sptlc1 KO and control mice. […] Supernatant was then measured OD at 450 nm, a reading for viable cells (WST-1 reagent with no cell incubation being the background reading). […]
# Second, lysenin, a SM-specific cytotoxin, was used to measure apical membrane SM levels, since lysenin can recognize SM only when it forms aggregates or microdomains in the plasma membranes. […] Cell viability in tissue segments was measured by adding WST-1 cell proliferation reagent.
smiles,measurement,setting,value
"CCCCCCC(=O)CCCCCC/C=C/C[C@@H](O)[C@H](O)[C@@](N)(CO)C(=O)O [Myriocin, myriocin]",[14C]-cholesterol in the circulation vs controls,[1]; myriocin-treated WT mice,significantly less
same,[14C]-cholesterol in the circulation vs controls,[1]; myriocin-treated apoE KO mice,significantly less
same,ABCA1 protein in small intestine,[2],decreased
same,[14C]cholesterol in Bile,[3]; ApoE KO mice,2284 ± 521 dpm/ml
same,[14C]cholesterol in Intestine,[3]; ApoE KO mice,4158 ± 499 dpm/g
same,[14C]cholesterol in Liver,[3]; ApoE KO mice,3337 ± 649 dpm/g
same,[14C]cholesterol in Plasma,[3]; ApoE KO mice,1350 ± 142 dpm/ml
same,[14C]cholesterol in Bile,[3]; WT mice,2108 ± 394 dpm/ml
same,[14C]cholesterol in Intestine,[3]; WT mice,5237 ± 478 dpm/g
same,[14C]cholesterol in Liver,[3]; WT mice,4131 ± 575 dpm/g
same,[14C]cholesterol in Plasma,[3]; WT mice,1734 ± 390 dpm/ml
same,sensitivity to lysenin-mediated cytolysis vs controls,[4],significantly less sensitivity
